Columns and labels:
Format in all cases: cell-based, human
U251 glioblastoma cells [1] = assay: Immunoblot quantification of exosome marker proteins (CD63, Alix, LAMP-1) in purified exosomes and in cells; conditions: 10 μM MOPIPP or 1 μM vacuolin-1, western blot; for changes in expression of CD63, Alix and LAMP-1 in the corresponding cell populations: cell lysates, 24 h; for relative amounts of CD63, Alix and LAMP-1 in extracellular vesicle preparations versus control: exosomes from 24 h conditioned medium
Description: (§1) Prior to beginning studies, cells were seeded in 10 cm diameter culture dishes at 500,000 cells/dish and maintained for 24 h in DMEM supplemented with 10% Gibco™ exosome-depleted FBS (ThermoFisher Scientific, Waltham, Mass.). The medium was then replaced with fresh medium containing either 10 μM MOPIPP (synthesized as described in Trabbic et al., “Differential Induction of Cytoplasmic Vacuolization and Methuosis by Novel 2-Indolyl-Substituted Pyridinylpropenones, ACS Med. Chem. Lett., 5 (2014) 73-77) or 1 μM vacuolin-1 (Santa Cruz Biotechnology, Santa Cruz, Calif.) dissolved in DMSO. Control cultures contain an equivalent volume of the DMSO vehicle (0.1%) in the medium. After 24 h, the medium was collected from the dishes (typically 10-12 dishes per condition) and the attached cells were pooled and counted with a Coulter Counter (model Z1). Exosomes were isolated from medium using the Exo-Spin™ Exosome Purification system (Cell Guidance Systems, St. Louis, Mo.). The medium was pre-cleared by centrifugation at 4° C., first at 300×g for 10 min and then at 16,000×g for 30 min. Then a volume of Buffer A equal to half the volume of medium was added and the mixture was incubated overnight at 4° C. The precipitate, enriched with exosomes, was collected by centrifugation at 16,000×g for 1 h, and the pellet was re-suspended in […] Dulbecco's phosphate-buffered saline (PBS), pH 7.4. The material was applied to an Exo-Spin column equilibrated with PBS, and the purified exosomes were eluted in 200 μl of PBS.
The cells in the dishes used for collection of exosomes were washed three times with PBS and lysed in SDS sample buffer (Laemmli, “Cleavage of structural proteins during the assembly of the head of bacteriophage T4, Nature, 227 (1970) 680-685). The protein concentration was determined by colorimetric assay using Bio-Rad reagent (Bio-Rad, Richmond, Calif.). Samples containing equal amounts of total cell protein were subjected to SDS-PAGE and immunoblot analysis (as described in Maltese et al., “Retention of the Alzheimer's amyloid precursor fragment C99 in the endoplasmic reticulum prevents formation of amyloid beta-peptide, J. Biol. Chem., 276 (2001) 20267-20279). For analysis of proteins in exosomes, equal volumes of purified exosomes isolated from control or treated cells were mixed with ⅕ volume of 5×SDS sample buffer prior to SDS-PAGE. Monoclonal antibodies against CD63 and LAMP-1 were obtained from the Developmental Studies Hybridoma Bank (Iowa City, Iowa). […] Chemiluminescent signals on the membranes were quantified using an Alpha Innotech FluorChem HD2 imaging system with Alpha View software.

U251 glioblastoma cells [2] = assay: Vacuolization of U251 cells by phase contrast and electron microscopy; conditions: 24 h; for vacuolization of endocytic compartments (accumulation of vacuoles): 10 μM MOPIPP or 1 μM vacuolin-1, phase contrast microscopy
U251 glioblastoma cells [3] = assay: Cell counts, proliferation and viability of treated cultures (Coulter Counter); conditions: for cell attachment and proliferation despite vacuolization / growth inhibition (cell numbers versus DMSO control): U251 cells, 24 h; for cell attachment and proliferation despite vacuolization / cell proliferation and viability: 10 μM MOPIPP or 1 μM vacuolin-1; for growth inhibition (cell numbers versus DMSO control): 10 μM MOPIPP or 1 μM vacuolin-1, Coulter Counter; for cell proliferation and viability: U251 glioblastoma cells
Description: U251 human glioblastoma cells were purchased from the DCT Tumor Repository (National Cancer Institute, Frederick, Md.). Stock cultures were maintained in Dulbecco's modified Eagle medium (DMEM) containing 10% (v/v) fetal bovine serum (FBS) (JR Scientific, Woodland, Calif.) at 37° C. with an atmosphere of 5% CO2 in air. Cultures were passaged for less than 6 months and were monitored periodically for Mycoplasma contamination.
as §1

U251 glioblastoma cells [4] = assay: RT-PCR analysis of miRNAs in cells and exosomes; conditions: for relative abundance of miR-21-5p in exosomal RNA: equal amounts of exosomal RNA, raw Ct values, three independent experiments
Description: Prior to beginning studies, cells were seeded in 10 cm diameter culture dishes at 500,000 cells/dish and maintained for 24 h in DMEM supplemented with 10% Gibco™ exosome-depleted FBS (ThermoFisher Scientific, Waltham, Mass.). The medium was then replaced with fresh medium containing either 10 μM MOPIPP (synthesized as described in Trabbic et al., “Differential Induction of Cytoplasmic Vacuolization and Methuosis by Novel 2-Indolyl-Substituted Pyridinylpropenones, ACS Med. Chem. Lett., 5 (2014) 73-77) or 1 μM vacuolin-1 (Santa Cruz Biotechnology, Santa Cruz, Calif.) dissolved in DMSO. Control cultures contain an equivalent volume of the DMSO vehicle (0.1%) in the medium. After 24 h, the medium was collected from the dishes (typically 10-12 dishes per condition) and the attached cells were pooled and counted with a Coulter Counter (model Z1). Exosomes were isolated from medium using the Exo-Spin™ Exosome Purification system (Cell Guidance Systems, St. Louis, Mo.). The medium was pre-cleared by centrifugation at 4° C., first at 300×g for 10 min and then at 16,000×g for 30 min. Then a volume of Buffer A equal to half the volume of medium was added and the mixture was incubated overnight at 4° C. The precipitate, enriched with exosomes, was collected by centrifugation at 16,000×g for 1 h, and the pellet was re-suspended in […] Dulbecco's phosphate-buffered saline (PBS), pH 7.4. […]
Total RNA was extracted and purified from cultured cells or exosomes using QIAzol™ lysis reagent followed by RNAeasy Mini spin-columns, according to the manufacturer's protocol (SA Biosciences/Qiagen, Germantown, Md.). […] RNA and cDNA were quantified and checked for purity (OD 260/280) using a Nano-Drop-1000 spectrophotometer (ThermoFisher). […] For comparisons of the miRNA contents of exosomes collected from the medium of cells treated with MOPIPP, vacuolin-1 or vehicle (DMSO), individual miScript primers were purchased for six of the most highly expressed miRNAs detected in U251 cells (SA Biosciences/Qiagen). […]

| Compound | changes in expression of CD63, Alix and LAMP-1 in the corresponding cell populations (U251 glioblastoma cells [1]) | relative amounts of CD63, Alix and LAMP-1 in extracellular vesicle preparations versus control (U251 glioblastoma cells [1]) | vacuolization of endocytic compartments (accumulation of vacuoles) (U251 glioblastoma cells [2]) | subpopulation of vacuoles containing clusters of heterogeneous vesicles (ILV/exosome size) (U251 glioblastoma cells [2]; 10 μM MOPIPP, electron microscopy) | cell attachment and proliferation despite vacuolization (U251 glioblastoma cells [3]) | growth inhibition (cell numbers versus DMSO control) (U251 glioblastoma cells [3]) | cell proliferation and viability (U251 glioblastoma cells [3]) | cellular expression of 13 selected miRNAs (U251 glioblastoma cells [4]; U251 cells, 24 h, 10 μM MOPIPP versus DMSO, RT-PCR) | relative abundance of miR-21-5p in exosomal RNA (U251 glioblastoma cells [4]) |
| --- | --- | --- | --- | --- | --- | --- | --- | --- | --- |
| CCCc1[nH]c2ccc(OC)cc2c1C=CC(=O)c1ccncc1 [MOPIPP, 3-(5-methoxy-2-propyl-1H-indol-3-yl)-1-(4-pyridinyl)-2-propen-1-one] | comparatively modest | increased by several fold | resulted in vacuolization of endocytic compartments | 20-30% | remained attached to the culture dishes and continued to proliferate | lack of growth inhibition | not markedly impaired | did not cause major changes | no observations of any changes |
| Ic1cccc(/C=N/Nc2nc(N3CCOCC3)nc(N(c3ccccc3)c3ccccc3)n2)c1 [vacuolin-1, reference compound] | comparatively modest | An even greater increase | induced a very similar phenotype |  | remained attached to the culture dishes and continued to proliferate | lack of growth inhibition | not markedly impaired |  | no observations of any changes |

— patent publication US11602531B2, “Vacuole-inducing compounds, methods of making and using the same” (The University of Toledo, priority 2017, dated 2023)
